Results: US7291612B2, “Immunomodulatory compounds” (Active Biotech A.B., priority 2002, dated 2007)

biological target: T1, CD80-CD28 interaction (Homo sapiens, UniProt P33681); assay: cell free Homogenous Time Resolved Fluorescence (HTRF) assay, inhibition of the CD80-CD28 interaction; format: binding; details: 4 hours at room temperature, read-out: Activity (EC50 in summary form)
T1 construct: mouse Fab fragment (fusion partner)
T1 sequence (P33681 35-242 limits assumed): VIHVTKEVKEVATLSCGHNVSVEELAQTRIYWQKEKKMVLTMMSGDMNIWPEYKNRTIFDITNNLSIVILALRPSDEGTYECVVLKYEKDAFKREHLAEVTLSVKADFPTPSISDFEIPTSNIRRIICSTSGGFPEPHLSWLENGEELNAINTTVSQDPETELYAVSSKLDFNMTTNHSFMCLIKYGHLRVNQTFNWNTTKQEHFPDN
Method: The examples described above were tested in a cell free Homogenous Time Resolved Fluorescence (HTRF) assay to determine their activity as inhibitors of the CD80-CD28 interaction.
In the assay, europium and allophycocyanin (APC) are associated with CD28 and CD80 indirectly (through antibody linkers) to form a complex, which brings the europium and APC into close proximity to generate a signal. The complex comprises the following six proteins: fluorescent label 1, linker antibody 1, CD28 fusion protein, CD80 fusion protein, linker antibody 2, and fluorescent label 2. The table below describes these reagents in greater detail.
On formation of the complex, europium and APC are brought into proximity and a signal is generated.
Non-specific interaction was measured by substituting a mouse Fab fragment (C215) for the CD80 mouse Fab fragment fusion protein (1.9 μg/ml). The assay was carried out in black 384 well plates in a final volume of 30 μl. Assay buffer: 50 mM Tris-HCl, 150 mM NaCl pH7.8, containing 0.1% BSA (w/v) added just prior to use.
Compounds were added to the above reagents in a concentration series ranging between 100 μM-1.7 nM. The reaction was incubated for 4 hours at room temperature. Dual measurements were made using a Wallac Victor 1420 Multilabel Counter. First measurement: excitation 340 nm, emission 665 nm, delay 50 μs, window time 200 μs. second measurement: excitation 340 nm, emission 615 nm, delay 50 μs, window time 200 μs. Counts were automatically corrected for fluorescence crossover, quenching and background.

Row | SMILES | EC50
1 | O=C(NCCCn1ccnc1)c1ccc(-n2nc3c4cccc(F)c4[nH]cc-3c2=O)cc1 [Example 122] | < 1000 nM
2 | O=C(NC1CCCCNC1=O)c1ccc(-n2nc3c4cccc(F)c4[nH]cc-3c2=O)cc1 (stereo not drawn) [Example 123] | 1000 to 10000 nM
3 | CCN(CC)CCCCNC(=O)c1ccc(-n2nc3c4cccc(F)c4[nH]cc-3c2=O)cc1 [Example 124] | < 1000 nM
4 | O=C(NC1CCN(Cc2ccccc2)CC1)c1ccc(-n2nc3c4cccc(F)c4[nH]c(C4CC4)c-3c2=O)cc1 [Example 125] | < 1000 nM
5 | O=C(NCCc1ccccn1)c1ccc(-n2nc3c4cccc(F)c4[nH]cc-3c2=O)cc1 [Example 127] | > 10000 nM
6 | O=C(NCCCCN1CCCC1)c1ccc(-n2nc3c4cccc(F)c4[nH]c(C4CC4)c-3c2=O)cc1 [Example 130] | < 1000 nM
7 | CN1C2CCC1CC(NC(=O)c1ccc(-n3nc4c5cccc(F)c5[nH]cc-4c3=O)cc1)C2 (stereo not drawn) [Example 131] | < 1000 nM
8 | CN(C)CCCNC(=O)c1ccc(-n2nc3c4cccc(F)c4[nH]c(C4CC4)c-3c2=O)cc1 [Example 132] | < 1000 nM
9 | CN1C2CCC1CC(NC(=O)c1ccc(-n3nc4c5cccc(F)c5[nH]c(C5CC5)c-4c3=O)cc1)C2 (stereo not drawn) [Example 134] | < 1000 nM
10 | O=C(NCCc1cccnc1)c1ccc(-n2nc3c4cccc(F)c4[nH]c(C4CC4)c-3c2=O)cc1 [Example 139] | > 10000 nM
11 | CCOC(=O)CNC(=O)Nc1ccc(-n2nc3c4cccc(F)c4[nH]cc-3c2=O)cc1 [Example 142, {3-[4-(6-Fluoro-3-oxo-3,5-dihydro-pyrazolo[4,3-c]quinolin-2-yl)-phenyl]-ureido} acetic acid ethyl ester] | < 1000 nM
12 | CCCNC(=O)Nc1ccc(-n2nc3c4cccc(F)c4[nH]cc-3c2=O)cc1 [Example 145] | < 1000 nM
13 | CC(C)(C)OC(=O)Nc1ccc(-n2nc3c4cccc(F)c4[nH]cc-3c2=O)cc1 [Example 150] | < 1000 nM
14 | CC(C)C(C)NC(=S)Nc1ccc(-n2nc3c4cccc(F)c4[nH]cc-3c2=O)cc1 (stereo not drawn) [Example 157] | 1000 to 10000 nM
15 | CCN(CC)CCCCNC(=O)Nc1ccc(-n2nc3c4cccc(F)c4[nH]cc-3c2=O)cc1 [Example 158] | < 1000 nM
16 | CN(C)CCCNC(=O)Nc1ccc(-n2nc3c4cccc(F)c4[nH]cc-3c2=O)cc1 [Example 161] | < 1000 nM
17 | COC(=O)[C@@H](NC(=O)Nc1ccc(-n2nc3c4ccccc4[nH]cc-3c2=O)cc1)C(C)C [Example 162] | < 1000 nM
18 | CN(C)CCCCNC(=O)Nc1ccc(-n2nc3c4cccc(F)c4[nH]cc-3c2=O)cc1 [Example 163] | < 1000 nM
19 | CN(C)CCCNC(=O)c1ccc(-n2nc3c4ccccc4scc-3c2=O)cc1 [Example 165, N-[3-(dimethylamino)propyl]-4-(3-oxothiochromeno[4,3-c]pyrazol-2(3H)-yl)benzamide] | 1000 to 10000 nM
20 | CN1C(C)(C)CC(NC(=O)c2ccc(-n3nc4c5cccc(F)c5scc-4c3=O)cc2)CC1(C)C [Example 173, 4-(6-fluoro-3-oxothiochromeno[4,3-c]pyrazol-2(3H)-yl)-N-1,2,2,6,6-pentamethylpiperidin-4-ylbenzamide] | < 1000 nM

Continued, values first:

Row | EC50 | SMILES
21 | 1000 to 10000 nM | O=C(NCCCN1CCCC1=O)c1ccc(-n2nc3c4cccc(F)c4[nH]cc-3c2=O)cc1 [Example 121]
22 | 1000 to 10000 nM | CSCCCNC(=O)c1ccc(-n2nc3c4cccc(F)c4[nH]cc-3c2=O)cc1 [Example 128]
23 | < 1000 nM | CN1C(C)(C)CC(NC(=O)c2ccc(-n3nc4c5ccccc5[nH]c(C5CC5)c-4c3=O)cc2)CC1(C)C [Example 129]
24 | < 1000 nM | CCN(CC)CCCCNC(=O)c1ccc(-n2nc3c4cccc(F)c4[nH]c(C4CC4)c-3c2=O)cc1 [Example 135]
25 | 1000 to 10000 nM | CC(C)(C)OC(=O)N1CCC(NC(=O)c2ccc(-n3nc4c5cccc(F)c5[nH]c(C5CC5)c-4c3=O)cc2)CC1 [Example 136]
26 | < 1000 nM | O=C(NCCCN1CCN(Cc2c(F)cccc2Cl)CC1)c1ccc(-n2nc3c4cccc(F)c4[nH]c(C4CC4)c-3c2=O)cc1 [Example 137]
27 | 1000 to 10000 nM | O=C(NCCc1ccccn1)c1ccc(-n2nc3c4cccc(F)c4[nH]c(C4CC4)c-3c2=O)cc1 [Example 138]
28 | < 1000 nM | CN(C)CC(C)(C)CNC(=O)c1ccc(-n2nc3c4cccc(F)c4[nH]c(C4CC4)c-3c2=O)cc1 [Example 140]
29 | < 1000 nM | O=C(NCCCN1CCCC1)c1ccc(-n2nc3c4cccc(F)c4[nH]c(C4CC4)c-3c2=O)cc1 [Example 141]
30 | < 1000 nM | CC(C)(C)NC(=O)Nc1ccc(-n2nc3c4cccc(F)c4[nH]cc-3c2=O)cc1 [Example 146]
31 | 1000 to 10000 nM | O=C(Nc1ccccc1)Nc1ccc(-n2nc3c4cccc(F)c4[nH]cc-3c2=O)cc1 [Example 147]
32 | 1000 to 10000 nM | O=c1c2c[nH]c3c(F)cccc3c-2nn1-c1ccc(NC(=S)NC2CC2)cc1 [Example 148]
33 | > 10000 nM | O=c1c2c[nH]c3c(F)cccc3c-2nn1-c1ccc(NC(=S)NC2CCCCC2)cc1 [Example 149]
34 | 1000 to 10000 nM | CCOC(=O)Nc1ccc(-n2nc3c4cccc(F)c4[nH]cc-3c2=O)cc1 [Example 151]
35 | < 1000 nM | CN(C)CCOC(=O)Nc1ccc(-n2nc3c4cccc(F)c4[nH]cc-3c2=O)cc1 [Example 152]
36 | 1000 to 10000 nM | COC(=O)Nc1ccc(-n2nc3c4ccccc4[nH]c(C4CC4)c-3c2=O)cc1 [Example 153]
37 | < 1000 nM | CN(C)CCCOC(=O)Nc1ccc(-n2nc3c4cccc(F)c4[nH]cc-3c2=O)cc1 [Example 154]
38 | 1000 to 10000 nM | O=C(Nc1ccc(-n2nc3c4cccc(F)c4[nH]cc-3c2=O)cc1)OC1CCN(Cc2ccccc2)CC1 [Example 155]
39 | 1000 to 10000 nM | CCCCCNC(=S)Nc1ccc(-n2nc3c4cccc(F)c4[nH]cc-3c2=O)cc1 [Example 156]
40 | < 1000 nM | CCCNC(=O)Nc1ccc(-n2nc3c4ccccc4[nH]cc-3c2=O)cc1 [Example 159]
41 | 1000 to 10000 nM | O=c1c2c[nH]c3ccccc3c-2nn1-c1ccc(NC(=S)NC2CC2)cc1 [Example 160]
42 | < 1000 nM | O=C(NCCCCN1CCCC1)Nc1ccc(-n2nc3c4cccc(F)c4[nH]cc-3c2=O)cc1 [Example 164]
43 | < 1000 nM | O=C(NCCCNC1CCCCC1)c1ccc(-n2nc3c4ccccc4scc-3c2=O)cc1 [Example 166, N-[(cyclohexylamino)propyl]-4-(3-oxothiochromeno[4,3-c]pyrazol-2(3H)-yl)benzamide]
44 | > 10000 nM | O=C(NCCCCN1CCCC1)c1ccc(-n2nc3c4ccccc4scc-3c2=O)cc1 [Example 167, N-(pyrrolidin-1-yl-butyl)-4-(3-oxothiochromeno[4,3-c]pyrazol-2(3H)-yl)benzamide]
45 | 1000 to 10000 nM | CN1C(C)(C)CC(NC(=O)c2ccc(-n3nc4c5ccccc5scc-4c3=O)cc2)CC1(C)C [Example 168, 4-(3-oxothiochromeno[4,3-c]pyrazol-2(3H)-yl)-N-1,2,2,6,6-pentamethylpiperidin-4-ylbenzamide]
46 | 1000 to 10000 nM | CN(C)CCCNC(=O)c1ccc(-n2nc3c4cccc(F)c4scc-3c2=O)cc1 [Example 169, N-[3-(dimethylamino)propyl]-4-(6-fluoro-3-oxothiochromeno[4,3-c]pyrazol-2(3H)-yl)benzamide]
47 | 1000 to 10000 nM | O=C(NCCCNC1CCCCC1)c1ccc(-n2nc3c4cccc(F)c4scc-3c2=O)cc1 [Example 170, N-[(cyclohexylamino)propyl]-4-(6-fluoro-3-oxothiochromeno[4,3-c]pyrazol-2(3H)-yl)benzamide]
48 | < 1000 nM | O=C(NCCCCN1CCCC1)c1ccc(-n2nc3c4cccc(F)c4scc-3c2=O)cc1 [Example 171, N-(pyrrolidin-1-yl-butyl)-4-(6-fluoro-3-oxothiochromeno[4,3-c]pyrazol-2(3H)-yl)benzamide]
